Laboratory results taken from ChEMBL document CHEMBL5537193, “Multitargeting HDAC Inhibitors Containing a RAS/RAF Protein Interfering Unit” (J Med Chem, 2024).
Activity calls are given as the source filed them. No cut-off for these calls is given here.

Key:
[1] = biological target: Protein deacetylase HDAC6 (Homo sapiens, UniProt Q9UBN7); experiment: Inhibition of HDAC6 (unknown origin)
Histone deacetylase 7 = Histone deacetylase 7 (Homo sapiens, UniProt Q8WUI4); experiment: Inhibition of HDAC7 (unknown origin)
MCF7 = experiment: cells; conditions: Homo sapiens, MCF7, 72 h
Description: Cytotoxicity against human MCF7 cells assessed as inhibition of cell growth incubated for 72 hrs by MTT assay

Histone deacetylase 5 = Histone deacetylase 5 (Homo sapiens, UniProt Q9UQL6); experiment: Inhibition of HDAC5 (unknown origin)
PANC-1 [2] = experiment: Induction of apoptosis in human PANC-1 cells assessed as increase in cleaved caspase-3 expression level at 2 uM incubated for 24 hrs by Western blot analysis; assay type: functional, cell-based
Histone deacetylase 9 = Histone deacetylase 9 (Homo sapiens, UniProt Q9UKV0); experiment: Inhibition of HDAC9 (unknown origin)
PANC-1 [3] = experiment: Induction of apoptosis in human PANC-1 cells assessed as increase in Bax expression at 2 uM incubated for 24 hrs by Western blot analysis; assay type: functional, cell-based
HepG2 = experiment: cells; conditions: Homo sapiens, HepG2, 72 h
Description: Cytotoxicity against human HepG2 cells assessed as inhibition of cell growth incubated for 72 hrs by MTT assay

PANC-1 [4] = experiment: Induction of apoptosis in human PANC-1 cells assessed as increase in Cytochrome C expression level at 2 uM incubated for 24 hrs by Western blot analysis; assay type: functional, cell-based
Histone deacetylase 2 = Histone deacetylase 2 (Homo sapiens, UniProt Q92769); experiment: Inhibition of HDAC2 (unknown origin)
HT-29 [5] = experiment: cells; conditions: Homo sapiens, HT-29, 72 h
Description: Cytotoxicity against human HT-29 cells assessed as inhibition of cell growth incubated for 72 hrs by MTT assay

SGC-7901 = experiment: cells; conditions: Homo sapiens, SGC-7901, 72 h
Description: Cytotoxicity against human SGC-7901 cells assessed as inhibition of cell growth incubated for 72 hrs by MTT assay

PANC-1 [6] = experiment: Cell cycle arrest in human PANC-1 cells assessed as accumulation of cells at GO-G1 phase at 2 uM incubated for 24 hrs by PI/RNase staining based flow cytometric analysis; assay type: functional
K562 = experiment: cells; conditions: Homo sapiens, K562, 72 h
Description: Cytotoxicity against human K562 cells assessed as inhibition of cell growth incubated for 72 hrs by MTT assay

A-431 = experiment: cells; conditions: Homo sapiens, A-431, 72 h
Description: Cytotoxicity against human A-431 cells assessed as inhibition of cell growth incubated for 72 hrs by MTT assay

HT-29 [7] = experiment: Antitumor activity against human HT-29 cells xenografted in BALB/c nude mouse assessed as tumor growth inhibition at 7.5 mg/kg, ip administered once a day for 24 days relative to control; assay type: functional; conditions: HT-29, 576 h, time 24 day, read-out: TGI
PANC-1 [8] = experiment: Induction of apoptosis in human PANC-1 cells assessed as apoptotic cells at 2 uM incubated for 24 hrs by flow cytometric analysis relative to control; assay type: functional
PANC-1 [9] = experiment: Induction of apoptosis in human PANC-1 cells assessed as increase in cleaved PARP expression level at 2 uM incubated for 24 hrs by Western blot analysis; assay type: functional, cell-based
Histone deacetylase 4 = Histone deacetylase 4 (Homo sapiens, UniProt P56524); experiment: Inhibition of HDAC4 (unknown origin)
Histone deacetylase 1 = Histone deacetylase 1 (Homo sapiens, UniProt Q13547); experiment: Inhibition of HDAC1 (unknown origin)
NCI-H1975 = experiment: cells; conditions: Homo sapiens, NCI-H1975, 72 h
Description: Cytotoxicity against human NCI-H1975 cells assessed as inhibition of cell growth incubated for 72 hrs by MTT assay

PANC-1 [10] = experiment: Induction of apoptosis in human PANC-1 cells assessed as increase in cleaved caspase-9 expression level at 2 uM incubated for 24 hrs by Western blot analysis; assay type: functional, cell-based
L02 = experiment: cells; conditions: Homo sapiens, L02, 72 h
Description: Cytotoxicity against human L02 cells assessed as inhibition of cell growth incubated for 72 hrs by MTT assay

Histone deacetylase 8 = Histone deacetylase 8 (Homo sapiens, UniProt Q9BY41); experiment: Inhibition of HDAC8 (unknown origin)
HT-29 [11] = experiment: Induction of apoptosis in human HT-29 cells assessed as apoptotic ratio at 2 uM incubated for 24 hrs by flow cytometric analysis; assay type: functional
A549 = experiment: cells; conditions: Homo sapiens, A549, 72 h
Description: Cytotoxicity against human A549 cells assessed as inhibition of cell growth incubated for 72 hrs by MTT assay

PANC-1 [12] = experiment: cells; conditions: Homo sapiens, PANC-1, 72 h
Description: Cytotoxicity against human PANC-1 cells assessed as inhibition of cell growth incubated for 72 hrs by MTT assay

Histone deacetylase 3 = Histone deacetylase 3 (Homo sapiens, UniProt O15379); experiment: Inhibition of HDAC3 (unknown origin)
[13] = biological target: Polyamine deacetylase HDAC10 (Homo sapiens, UniProt Q969S8); experiment: Inhibition of HDAC10 (unknown origin)
HT-29 [14] = experiment: Antitumor activity against human HT-29 cells xenografted in BALB/c nude mouse assessed as tumor growth inhibition at 7.5 mg/kg, ip administered once a day for 24 days in presence of SAHA relative to control; assay type: functional; conditions: HT-29, 576 h, time 24 day, read-out: TGI
MV4-11 = experiment: cells; conditions: Homo sapiens, MV4-11, 72 h
Description: Cytotoxicity against human MV4-11 cells assessed as inhibition of cell growth incubated for 72 hrs by MTT assay

Histone deacetylase 11 = Histone deacetylase 11 (Homo sapiens, UniProt Q96DB2); experiment: Inhibition of HDAC11 (unknown origin)
Sequence of Histone deacetylase 11 (Q96DB2 whole entry): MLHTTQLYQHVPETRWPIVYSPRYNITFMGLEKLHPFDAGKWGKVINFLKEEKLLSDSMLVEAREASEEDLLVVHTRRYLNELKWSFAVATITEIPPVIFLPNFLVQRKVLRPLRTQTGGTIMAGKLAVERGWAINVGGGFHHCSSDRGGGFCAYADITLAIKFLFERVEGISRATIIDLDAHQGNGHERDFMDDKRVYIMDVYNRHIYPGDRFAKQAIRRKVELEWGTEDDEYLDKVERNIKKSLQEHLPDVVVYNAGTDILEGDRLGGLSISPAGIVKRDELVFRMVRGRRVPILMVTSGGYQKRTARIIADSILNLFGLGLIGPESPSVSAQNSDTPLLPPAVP

Sequence of Histone deacetylase 2 (Q92769 whole entry): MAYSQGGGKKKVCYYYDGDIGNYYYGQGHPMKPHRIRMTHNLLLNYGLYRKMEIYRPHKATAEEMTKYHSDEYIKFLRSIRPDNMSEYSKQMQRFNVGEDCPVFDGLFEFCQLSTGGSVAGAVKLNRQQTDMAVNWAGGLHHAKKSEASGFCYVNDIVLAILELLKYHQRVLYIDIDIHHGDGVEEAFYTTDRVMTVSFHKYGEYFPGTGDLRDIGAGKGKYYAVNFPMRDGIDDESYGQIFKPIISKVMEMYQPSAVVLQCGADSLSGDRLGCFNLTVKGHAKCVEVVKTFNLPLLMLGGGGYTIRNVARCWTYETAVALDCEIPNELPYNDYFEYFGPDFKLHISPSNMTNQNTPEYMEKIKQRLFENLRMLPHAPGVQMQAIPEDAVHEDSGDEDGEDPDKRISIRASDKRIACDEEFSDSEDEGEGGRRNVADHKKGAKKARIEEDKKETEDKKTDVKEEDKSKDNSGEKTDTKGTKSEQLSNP
Sequence of Histone deacetylase 8 (Q9BY41 whole entry): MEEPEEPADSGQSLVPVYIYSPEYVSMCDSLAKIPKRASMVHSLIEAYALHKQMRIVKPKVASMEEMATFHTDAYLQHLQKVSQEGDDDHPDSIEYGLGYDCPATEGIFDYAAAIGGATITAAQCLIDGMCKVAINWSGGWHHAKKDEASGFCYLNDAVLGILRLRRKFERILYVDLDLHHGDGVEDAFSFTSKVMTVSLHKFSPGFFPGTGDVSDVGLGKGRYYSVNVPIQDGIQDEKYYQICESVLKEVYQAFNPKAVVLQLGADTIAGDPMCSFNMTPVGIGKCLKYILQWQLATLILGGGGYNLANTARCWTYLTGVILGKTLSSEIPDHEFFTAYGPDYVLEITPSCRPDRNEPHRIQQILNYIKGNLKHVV
Sequence of Protein deacetylase HDAC6 (Q9UBN7 whole entry): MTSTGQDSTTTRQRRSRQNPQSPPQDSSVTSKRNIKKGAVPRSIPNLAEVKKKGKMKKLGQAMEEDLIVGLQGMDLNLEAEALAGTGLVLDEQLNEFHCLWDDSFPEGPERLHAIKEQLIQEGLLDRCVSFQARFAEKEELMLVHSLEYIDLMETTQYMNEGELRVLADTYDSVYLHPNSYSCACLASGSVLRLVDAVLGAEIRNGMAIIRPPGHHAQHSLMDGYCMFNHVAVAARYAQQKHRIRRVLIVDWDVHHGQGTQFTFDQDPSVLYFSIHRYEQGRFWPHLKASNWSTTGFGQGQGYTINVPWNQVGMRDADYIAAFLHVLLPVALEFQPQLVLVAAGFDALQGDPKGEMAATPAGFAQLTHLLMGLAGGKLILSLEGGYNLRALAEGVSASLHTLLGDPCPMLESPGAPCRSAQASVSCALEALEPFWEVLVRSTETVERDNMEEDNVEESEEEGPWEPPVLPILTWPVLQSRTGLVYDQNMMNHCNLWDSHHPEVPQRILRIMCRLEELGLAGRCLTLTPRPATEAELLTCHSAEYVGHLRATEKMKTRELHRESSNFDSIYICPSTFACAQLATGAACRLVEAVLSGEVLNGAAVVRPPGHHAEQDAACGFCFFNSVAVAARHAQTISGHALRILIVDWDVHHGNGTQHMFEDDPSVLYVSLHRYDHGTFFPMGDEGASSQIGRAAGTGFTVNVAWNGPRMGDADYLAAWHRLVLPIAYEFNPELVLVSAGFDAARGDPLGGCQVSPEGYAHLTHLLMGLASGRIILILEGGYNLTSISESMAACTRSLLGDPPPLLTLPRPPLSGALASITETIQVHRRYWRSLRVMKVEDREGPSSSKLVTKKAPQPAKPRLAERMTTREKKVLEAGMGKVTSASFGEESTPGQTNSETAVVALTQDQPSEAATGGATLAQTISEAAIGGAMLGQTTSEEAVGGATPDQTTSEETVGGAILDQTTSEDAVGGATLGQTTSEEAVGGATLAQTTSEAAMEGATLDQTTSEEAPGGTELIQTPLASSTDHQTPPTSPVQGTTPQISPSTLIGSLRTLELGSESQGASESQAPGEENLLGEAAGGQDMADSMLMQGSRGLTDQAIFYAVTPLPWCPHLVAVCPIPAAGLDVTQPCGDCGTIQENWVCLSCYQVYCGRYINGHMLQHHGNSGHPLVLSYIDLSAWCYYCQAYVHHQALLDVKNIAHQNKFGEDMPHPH
Sequence of Histone deacetylase 7 (Q8WUI4 whole entry): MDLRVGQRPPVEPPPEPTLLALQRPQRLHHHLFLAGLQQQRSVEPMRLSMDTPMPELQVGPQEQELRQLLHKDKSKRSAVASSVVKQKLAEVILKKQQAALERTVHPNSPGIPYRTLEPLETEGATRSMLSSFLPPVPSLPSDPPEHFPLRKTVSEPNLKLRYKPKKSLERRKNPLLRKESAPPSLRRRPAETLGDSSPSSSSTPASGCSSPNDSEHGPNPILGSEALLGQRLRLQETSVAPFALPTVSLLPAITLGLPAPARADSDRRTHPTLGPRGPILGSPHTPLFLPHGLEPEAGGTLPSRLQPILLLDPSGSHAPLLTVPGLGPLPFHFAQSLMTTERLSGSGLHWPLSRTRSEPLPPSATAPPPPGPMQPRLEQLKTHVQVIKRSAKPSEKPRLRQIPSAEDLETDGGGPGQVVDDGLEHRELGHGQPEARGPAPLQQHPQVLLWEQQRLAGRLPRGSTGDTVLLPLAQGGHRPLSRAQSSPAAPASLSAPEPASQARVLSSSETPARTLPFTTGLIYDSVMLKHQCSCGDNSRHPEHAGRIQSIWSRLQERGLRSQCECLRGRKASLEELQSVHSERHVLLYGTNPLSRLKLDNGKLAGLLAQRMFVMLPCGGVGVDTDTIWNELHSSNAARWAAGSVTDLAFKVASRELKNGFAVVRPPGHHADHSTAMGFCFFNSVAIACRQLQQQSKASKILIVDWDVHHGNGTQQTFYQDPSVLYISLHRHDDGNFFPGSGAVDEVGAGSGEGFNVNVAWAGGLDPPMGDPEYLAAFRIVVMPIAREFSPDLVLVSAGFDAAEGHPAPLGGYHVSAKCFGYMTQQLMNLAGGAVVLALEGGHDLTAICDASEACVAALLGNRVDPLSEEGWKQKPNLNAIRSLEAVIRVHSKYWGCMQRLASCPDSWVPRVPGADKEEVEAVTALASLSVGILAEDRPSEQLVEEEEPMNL
Sequence of Histone deacetylase 3 (O15379 whole entry): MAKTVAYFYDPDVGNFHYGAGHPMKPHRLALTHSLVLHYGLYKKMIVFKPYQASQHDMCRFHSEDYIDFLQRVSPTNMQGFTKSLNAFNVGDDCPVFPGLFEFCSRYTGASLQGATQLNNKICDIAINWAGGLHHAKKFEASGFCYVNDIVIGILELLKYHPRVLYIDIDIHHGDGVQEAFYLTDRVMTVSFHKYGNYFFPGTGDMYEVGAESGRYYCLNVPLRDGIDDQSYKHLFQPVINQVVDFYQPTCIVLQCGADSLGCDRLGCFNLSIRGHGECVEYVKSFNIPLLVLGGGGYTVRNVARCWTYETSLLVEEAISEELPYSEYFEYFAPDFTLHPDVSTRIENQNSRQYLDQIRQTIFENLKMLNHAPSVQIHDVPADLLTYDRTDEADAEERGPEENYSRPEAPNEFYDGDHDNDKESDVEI
Sequence of Polyamine deacetylase HDAC10 (Q969S8 whole entry): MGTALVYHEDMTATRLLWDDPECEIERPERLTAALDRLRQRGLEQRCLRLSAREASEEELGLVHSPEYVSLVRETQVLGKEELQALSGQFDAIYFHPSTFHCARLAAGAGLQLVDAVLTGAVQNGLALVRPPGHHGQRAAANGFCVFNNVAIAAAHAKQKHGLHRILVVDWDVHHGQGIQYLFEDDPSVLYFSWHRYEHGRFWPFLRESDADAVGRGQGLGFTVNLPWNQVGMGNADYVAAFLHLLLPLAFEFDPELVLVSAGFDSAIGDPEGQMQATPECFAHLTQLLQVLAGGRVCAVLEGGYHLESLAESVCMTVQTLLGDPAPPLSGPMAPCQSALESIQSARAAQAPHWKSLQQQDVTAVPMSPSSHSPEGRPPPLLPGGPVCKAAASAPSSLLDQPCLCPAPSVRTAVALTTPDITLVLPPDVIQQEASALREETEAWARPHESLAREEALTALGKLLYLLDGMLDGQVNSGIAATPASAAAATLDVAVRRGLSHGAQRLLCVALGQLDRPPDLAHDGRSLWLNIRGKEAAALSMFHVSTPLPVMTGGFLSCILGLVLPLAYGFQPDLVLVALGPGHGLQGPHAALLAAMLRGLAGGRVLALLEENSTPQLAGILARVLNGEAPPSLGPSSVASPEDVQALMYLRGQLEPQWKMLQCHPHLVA
Sequence of Histone deacetylase 1 (Q13547 whole entry): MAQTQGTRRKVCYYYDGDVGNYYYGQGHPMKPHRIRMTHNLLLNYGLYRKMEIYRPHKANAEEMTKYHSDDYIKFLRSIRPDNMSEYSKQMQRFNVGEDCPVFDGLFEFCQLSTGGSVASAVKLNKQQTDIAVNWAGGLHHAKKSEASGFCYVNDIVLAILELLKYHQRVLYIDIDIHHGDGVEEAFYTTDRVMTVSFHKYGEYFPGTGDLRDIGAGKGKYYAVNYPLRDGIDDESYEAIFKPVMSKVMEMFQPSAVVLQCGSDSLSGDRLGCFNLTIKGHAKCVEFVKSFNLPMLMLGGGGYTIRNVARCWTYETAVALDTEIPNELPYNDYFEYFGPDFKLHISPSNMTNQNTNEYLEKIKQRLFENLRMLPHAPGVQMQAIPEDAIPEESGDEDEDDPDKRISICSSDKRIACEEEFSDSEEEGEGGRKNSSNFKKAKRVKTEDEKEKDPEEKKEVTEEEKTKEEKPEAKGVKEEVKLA

COc1cc(OC)c(/C=C/S(=O)(=O)Cc2ccc(OC)c(NCC(=O)O)c2)c(OC)c1 [RIGOSERTIB]
IC50 [1]: > 10000 nM
IC50 (Histone deacetylase 7): > 10000 nM
IC50 (MCF7): 260 nM
IC50 (Histone deacetylase 5): > 10000 nM
Activity (PANC-1 [2]): Active
IC50 (Histone deacetylase 9): > 10000 nM
Activity (PANC-1 [3]): Active
IC50 (HepG2): 1340 nM
Activity (PANC-1 [4]): Active
IC50 (Histone deacetylase 2): > 10000 nM
IC50 (HT-29 [5]): 160 nM
IC50 (SGC-7901): 250 nM
Activity (PANC-1 [6]): Active
IC50 (K562): 150 nM
IC50 (A-431): 360 nM
inhibition in vivo at 7.5 mg/kg (HT-29 [7]): 46%
Activity (PANC-1 [8]): 41.4%
Activity (PANC-1 [9]): Active
IC50 (Histone deacetylase 4): > 10000 nM
IC50 (Histone deacetylase 1): > 10000 nM
IC50 (NCI-H1975): 230 nM
Activity (PANC-1 [10]): Active
IC50 (L02): > 40000 nM
IC50 (Histone deacetylase 8): > 10000 nM
Activity (HT-29 [11]): 34.8%
IC50 (A549): 370 nM
IC50 (PANC-1 [12]): 260 nM
IC50 (Histone deacetylase 3): > 10000 nM
IC50 [13]: > 10000 nM
inhibition in vivo at 7.5 mg/kg (HT-29 [14]): 77.9%
IC50 (MV4-11): 1150 nM
IC50 (Histone deacetylase 11): > 10000 nM
